Test results reported in patent US9884056B2, “Oral pharmaceutical dosage forms” (Durect Corporation, priority 2008, dated 2018).

How the values were obtained:
[1] = In vitro volatilization test; type: physicochemical; settings: 40 mg in petri dish on hot plate
Text: In order to further assess the abuse-resistance performance of abuse-resistant dosage forms produced according to the present invention, the following in vitro volatilization test was developed. In particular, intentional abuse of controlled release pharmaceutical dosage forms may alternatively be carried out by volatilization (smoking, or free-basing) techniques that can liberate active agent (in immediately active form) from commercially available controlled release carrier systems. Accordingly, a preliminary in vitro volatilization test was developed in order to assess: (1) whether a free base form of an active agent (in this case, oxycodone) was more volatile than the salt (HCl) form; and (2) whether abuse-resistant dosage forms produced according to the instant invention can prevent inhalation abuse through volatilization.
Each petri dish was fitted with a watch glass as a cover, and the covered test dishes were placed on a hot plate (setting 10). After 30 seconds each watch glass was replaced with a fresh watch glass, and this step was repeated three times (to obtain 4 time points). Any residue deposited on the bottom side of the test watch glasses was carefully transferred with an Alpha Swab (TX 761) into 40/60 ethanol/0.005M HCl solution, and the concentration of oxycodone solution was determined by HPLC. The observations taken during the test were as follows. […]

[2] = cited from earlier work
[3] = after an IV dose, PET; cited from earlier work

COc1ccc2c3c1O[C@H]1C(=O)CC[C@@]4(O)[C@@H](C2)N(C)CC[C@]314.Cl [oxycodone HCl]
observation upon heating in volatilization test [1]: extensive degradation and charring

COC(=O)C(c1ccccc1)C1CCCCN1 (racemic) [methylphenidate, dl-threo-methyl-2-phenyl-2-(2-piperidyl) acetate]
dose deesterified to the inactive major metabolite, ritalinic acid ([2]; excreted in the urine): About 70% | Tmax following oral administration (mean) ([2]; immediate release, oral): 1.5 h | d-threo to l-threo plasma concentration ratio ([2]; in vivo): ~10:1 | systemic half-life ([2]; in vivo): approximately 3 hours

COC(=O)C(c1ccccc1)C1CCCCN1 (centres unmarked) [^11C-labeled methylphenidate]
brain clearance half life [3]: 1.5 h | brain uptake Tmax [3]: < 0.167 h

COc1ccc2c3c1O[C@H]1C(=O)CC[C@@]4(O)[C@@H](C2)N(C)CC[C@]314 [oxycodone free base form, oxycodone]
observation upon heating in volatilization test [1]: vaporizes/sublimes upon heating
